Measurements: PubChem BioAssay AID1963867 (Molecular Pharmacology Branch, DTP, NCI, 2024)

System: KRAS-mutant PDC tumor spheroid with HUVEC/MSC, viability
Test: Anticancer human tumor 327498-153-R-J2-PDC patient-derived uterine carcinosarcoma cell line growth inhibition [KRAS2]
Conditions: for viability, T/C: stronger effect = lower value
Procedure, shortened: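 KRAS-mutant tumor cells were grown as spheroids with HUVEC endothelial cells and human MSCs as stroma. Targeted agents were tested alone and with KRAS pathway inhibitors. Doses started at or near clinical Cmax, or 10 microM, descending half-log.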

[1] = curve of first compound, second compound 0.0316 µM
[2] = curve of first compound, second compound 0.1 µM
[3] = curve of first compound, second compound 0.316 µM
[4] = curve of first compound, second compound 1 µM
[5] = curve of first compound, second compound 3.16 µM
[6] = second compound 0.0316 µM, first compound 0.01 µM
[7] = second compound 0.0316 µM, first compound 0.0316 µM
[8] = second compound 0.0316 µM, first compound 0.1 µM
[9] = second compound 0.0316 µM, first compound 0.316 µM
[10] = second compound 0.0316 µM, first compound 1 µM
[11] = second compound 0.0316 µM, first compound 3.16 µM
[12] = second compound 0.1 µM, first compound 0.01 µM
[13] = second compound 0.1 µM, first compound 0.0316 µM
[14] = second compound 0.1 µM, first compound 0.1 µM
[15] = second compound 0.1 µM, first compound 0.316 µM
[16] = second compound 0.1 µM, first compound 1 µM
[17] = second compound 0.1 µM, first compound 3.16 µM
[18] = second compound 0.316 µM, first compound 0.01 µM
[19] = second compound 0.316 µM, first compound 0.0316 µM
[20] = second compound 0.316 µM, first compound 0.1 µM
[21] = second compound 0.316 µM, first compound 0.316 µM
[22] = second compound 0.316 µM, first compound 1 µM
[23] = second compound 0.316 µM, first compound 3.16 µM
[24] = second compound 1 µM, first compound 0.01 µM
[25] = second compound 1 µM, first compound 0.0316 µM
[26] = second compound 1 µM, first compound 0.1 µM
[27] = second compound 1 µM, first compound 0.316 µM
[28] = second compound 1 µM, first compound 1 µM
[29] = second compound 1 µM, first compound 3.16 µM
[30] = second compound 3.16 µM, first compound 0.01 µM
[31] = second compound 3.16 µM, first compound 0.0316 µM
[32] = second compound 3.16 µM, first compound 0.1 µM
[33] = second compound 3.16 µM, first compound 0.316 µM
[34] = second compound 3.16 µM, first compound 1 µM
[35] = second compound 3.16 µM, first compound 3.16 µM
[36] = second compound 0.1 µM, first compound 0.00316 µM
[37] = second compound 0.316 µM, first compound 0.00316 µM
[38] = second compound 1 µM, first compound 0.00316 µM
[39] = second compound 3.16 µM, first compound 0.00316 µM
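Further: spheroids exposed to agents for seven days before reading.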
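Wherever viability, T/C is given: 100% = DMSO vehicle wells so lower means fewer viable cells.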

CC(=O)OC12COC1CC(O)C1(C)C(=O)C(O)C3=C(C)C(OC(=O)C(O)C(NC(=O)OC(C)(C)C)c4ccccc4)CC(O)(C(OC(=O)c4ccccc4)C21)C3(C)C (stereo not given) + C=CC(=O)N1CCN(c2nc(OCC3CCCN3C)nc3c2CCN(c2cccc4cccc(C)c24)C3)CC1CC#N
IC50 [1]: < 10 nM
IC50 [2]: < 10 nM
IC50 [3]: < 10 nM
IC50 [4]: < 10 nM
IC50 [5]: < 10 nM
viability, T/C [6]: 6.75%
viability, T/C [7]: 5.33%
viability, T/C [8]: 6.51%
viability, T/C [9]: 6.19%
viability, T/C [10]: 7.48%
viability, T/C [11]: 10.1%
viability, T/C [12]: 5.53%
viability, T/C [13]: 4.17%
viability, T/C [14]: 3.96%
viability, T/C [15]: 4.52%
viability, T/C [16]: 6.93%
viability, T/C [17]: 8.74%
viability, T/C [18]: 4.9%
viability, T/C [19]: 4.31%
viability, T/C [20]: 4.23%
viability, T/C [21]: 4.71%
viability, T/C [22]: 5.82%
viability, T/C [23]: 7.76%
viability, T/C [24]: 4.4%
viability, T/C [25]: 3.43%
viability, T/C [26]: 3.95%
viability, T/C [27]: 3.86%
viability, T/C [28]: 5.54%
viability, T/C [29]: 4.84%
viability, T/C [30]: 7.35%
viability, T/C [31]: 6.27%
viability, T/C [32]: 5.84%
viability, T/C [33]: 6.15%
viability, T/C [34]: 7.24%
viability, T/C [35]: 10.6%

CNCc1ccccc1-c1csc(C(C)Nc2nc(C)nc3cc(OC)c(OC)cc23)c1 (stereo not given)
viability, T/C (compound 0.1 µM): 85.7% [middle of 17 runs]
viability, T/C (compound 0.316 µM): 77.5% [middle of 17 runs]
viability, T/C (compound 10 µM): 1.07% [middle of 17 runs]
IC50 (compound alone, run of 07/19/2021): 1.43 µM [middle of 5 runs]
IC50 (compound alone, run of 07/26/2021): 1.48 µM [middle of 5 runs]

CC1OCC2(CCN(c3cnc(Sc4ccnc(N)c4Cl)c(N)n3)CC2)C1N (stereo not given) + C=CC(=O)N1CCN(c2nc(OCC3CCCN3C)nc3c2CCN(c2cccc4cccc(C)c24)C3)CC1CC#N
IC50 [1]: < 31.6 nM
IC50 [2]: < 31.6 nM
IC50 [3]: < 31.6 nM
IC50 [4]: < 31.6 nM
IC50 [5]: < 31.6 nM
viability, T/C [7]: 44%
viability, T/C [8]: 40.3%
viability, T/C [9]: 23.9%
viability, T/C [10]: 22.6%
viability, T/C [11]: 19.6%
viability, T/C (second compound 0.0316 µM, first compound 10 µM): 14.9%
viability, T/C [13]: 41.2%
viability, T/C [14]: 32.9%
viability, T/C [15]: 24.9%
viability, T/C [16]: 21.2%
viability, T/C [17]: 16.2%
viability, T/C (second compound 0.1 µM, first compound 10 µM): 16.4%
viability, T/C [19]: 40.6%
viability, T/C [20]: 30.9%
viability, T/C [21]: 24.4%
viability, T/C [22]: 20.4%
viability, T/C [23]: 16.4%
viability, T/C (second compound 0.316 µM, first compound 10 µM): 15.3%
viability, T/C [25]: 33%
viability, T/C [26]: 24.2%
viability, T/C [27]: 23.1%
viability, T/C [28]: 19.3%
viability, T/C [29]: 14.3%
viability, T/C (second compound 1 µM, first compound 10 µM): 13.5%
viability, T/C [31]: 0.14%
viability, T/C [32]: 0.15%
viability, T/C [33]: 0.14%
viability, T/C [34]: 0.13%
viability, T/C [35]: 0.15%
viability, T/C (second compound 3.16 µM, first compound 10 µM): 0.24%

CCN1CCN(Cc2ccc(Nc3ncc(F)c(-c4cc(F)c5nc(C)n(C(C)C)c5c4)n3)nc2)CC1 + COc1cc2nc(C)nc(NC(C)c3cc(N)cc(C(F)(F)F)c3)c2cc1OC1CCOC1
IC50 [2]: 10.6 nM
IC50 [3]: 6.84 nM
IC50 [4]: < 3.16 nM
IC50 [5]: 4.42 nM
IC50 (curve of first compound, second compound 10 µM): < 3.16 nM
viability, T/C [36]: 65.4%
viability, T/C [12]: 52.8%
viability, T/C [13]: 42.6%
viability, T/C [14]: 40%
viability, T/C [15]: 40%
viability, T/C [16]: 49.2%
viability, T/C [37]: 61%
viability, T/C [18]: 48%
viability, T/C [19]: 33.2%
viability, T/C [20]: 35.9%
viability, T/C [21]: 36.6%
viability, T/C [22]: 41.2%
viability, T/C [38]: 51.8%
viability, T/C [24]: 37.8%
viability, T/C [25]: 33%
viability, T/C [26]: 30%
viability, T/C [27]: 39.5%
viability, T/C [28]: 42.8%
viability, T/C [39]: 56.4%
viability, T/C [30]: 34.5%
viability, T/C [31]: 31%
viability, T/C [32]: 29.9%
viability, T/C [33]: 34.6%
viability, T/C [34]: 31.3%
viability, T/C (second compound 10 µM, first compound 0.00316 µM): 45.4%
viability, T/C (second compound 10 µM, first compound 0.01 µM): 28.9%
viability, T/C (second compound 10 µM, first compound 0.0316 µM): 29.2%
viability, T/C (second compound 10 µM, first compound 0.1 µM): 26.9%
viability, T/C (second compound 10 µM, first compound 0.316 µM): 20.3%
viability, T/C (second compound 10 µM, first compound 1 µM): 0.34%

CC(C)n1nc(-c2ccc3oc(N)nc3c2)c2c(N)ncnc21 + C=CC(=O)N1CCN(c2nc(OCC3CCCN3C)nc3c2CCN(c2cccc4cccc(C)c24)C3)CC1CC#N
IC50 [1]: 1.03 nM
IC50 [2]: 0.342 nM
IC50 [3]: 0.586 nM
IC50 [4]: < 0.316 nM
IC50 [5]: < 0.316 nM
viability, T/C (second compound 0.0316 µM, first compound 0.000316 µM): 62.7%
viability, T/C (second compound 0.0316 µM, first compound 0.001 µM): 49.2%
viability, T/C (second compound 0.0316 µM, first compound 0.00316 µM): 35.1%
viability, T/C [6]: 17.8%
viability, T/C [7]: 8.35%
viability, T/C [8]: 5.42%
viability, T/C (second compound 0.1 µM, first compound 0.000316 µM): 51.6%
viability, T/C (second compound 0.1 µM, first compound 0.001 µM): 35.8%
viability, T/C [36]: 28.4%
viability, T/C [12]: 17.2%
viability, T/C [13]: 8.1%
viability, T/C [14]: 4.85%
viability, T/C (second compound 0.316 µM, first compound 0.000316 µM): 57.3%
viability, T/C (second compound 0.316 µM, first compound 0.001 µM): 43.7%
viability, T/C [37]: 28.8%
viability, T/C [18]: 15.8%
viability, T/C [19]: 9.55%
viability, T/C [20]: 4.33%
viability, T/C (second compound 1 µM, first compound 0.000316 µM): 46.5%
viability, T/C (second compound 1 µM, first compound 0.001 µM): 33%
viability, T/C [38]: 22.6%
viability, T/C [24]: 13.2%
viability, T/C [25]: 4.83%
viability, T/C [26]: 3.23%
viability, T/C (second compound 3.16 µM, first compound 0.000316 µM): 0.28%
viability, T/C (second compound 3.16 µM, first compound 0.001 µM): 0.25%
viability, T/C [39]: 0.22%
viability, T/C [30]: 0.14%
viability, T/C [31]: 0.14%
viability, T/C [32]: 0.21%
